Experimental data as given in article PMC8878748, “Broad-Spectrum Antiviral Activity of the Amphibian Antimicrobial Peptide Temporin L and Its Analogs” (International Journal of Molecular Sciences, 2022).
Like-named read-outs stand apart in the source and are kept apart here. Where a SMILES comes first, the peptide text is derived from it. [ ]: non-standard residue; d: D form. The star is where a group is joined. X1 = CC(C)CCC[C@@H](C)[C@H]1CC[C@H]2[C@@H]3CC=C4C[C@@H](OC(=O)CCOCCOCCOCCOCCNC(=O)C*)CC[C@]4(C)[C@H]3CC[C@]12C; dHyp = O=C(O)[C@H]1C[C@H](O)CN1; Undecanoyl = CCCCCCCCCCC(=O)*; Nle = CCCC[C@H](N)C(=O)O

Experiments:
[1] = tested on: MeV; settings: for IC50 / IC90: 2 h
[2] = cited from earlier work
[3] = MTT cytotoxicity assay on Vero cells; format: cell-based; settings: MTT, calculated after 2 h of peptide treatment
[4] = tested on: poliovirus Sb-1; format: cell-based
[5] = tested on: CV-B3; test: Plaque reduction assay, CV-B3; format: cell-based, Enterovirus B (coxsackievirus B3, ATCC VR-688); settings: four experimental settings
[6] = tested on: influenza virus (subtype H1N1); settings: influenza virus (subtype, 2 h)
[7] = tested on: human erythrocytes; settings: for hemolytic activity: at their antiviral concentrations
Experimental: The hemolytic activity of the peptides was determined using fresh human erythrocytes from healthy donors as reported previously. Briefly, the blood was centrifuged, and the erythrocytes were washed three times with 0.9% NaCl. Peptides were added to the erythrocyte suspension (5% v/v), at a final concentration ranging from 0.1 to 100 μM in a final volume of 100 μL. The samples were incubated with agitation at 37 °C for 60 min. The release of hemoglobin was monitored by measuring the absorbance (Abs) of the supernatant at 540 nm. The control for zero hemolysis (blank) consisted of erythrocytes suspended in the presence of peptide solvent. Hypotonically lysed erythrocytes were used as a standard for 100% hemolysis. The percentage of hemolysis was calculated using the equation: % hemolysis = [(Abssample − Absblank)/(Abstotal lysis − Absblank)] × 100

[8] = tested on: peripheral blood mononuclear cells (PBMCs); test: MTT cytotoxicity assay on PBMCs; format: cell-based, human; settings: 2 h and 24 h
Experimental: Vero cells (ATCC CCL-81, Manassas, VA, USA) and Vero/hSLAM cells (ECACC 04091501, Porton Down, UK) and Madin Darby canine kidney (MDCK, CCL-34) were grown in Dulbecco’s Modified Eagle Medium (DMEM) with 4.5 g/L glucose (Microtech, Naples, Italy) supplemented with 100 IU/mL penicillin and 100 μg/mL streptomycin (Himedia, Naples, Italy) and 10% Fetal Bovine Serum (Microtech). PBMCs were isolated as follow. Buffy coats acquired from a healthy anonymous donor were used to isolate PBMCs on a Ficoll-Hypaque density gradient (Sigma-Aldrich) according to standard procedures. Then, PBMCs were grown (5 × 10^6/mL) in RPMI 1640 (Microtech) supplemented with 10% FBS, 60 IU/mL of interleukin-2 (IL-2, Sigma-Aldrich) and 2 µg/mL of phytohemagglutinin (PHA) (Sigma-Aldrich).
Vero cells were seeded in 96-well microtiter tissue culture plates (5 × 10^3 cells /well) and incubated for 24 h at 37 °C in 5% CO2. PBMCs were isolated and then cultured at a concentration of 1 × 10^5 cells/well.
The cytotoxicity for both cell types was evaluated by the MTT (Sigma-Aldrich) assay based on the reduction of the yellowish MTT to the insoluble and dark blue formazan by viable and metabolically active cells. Temporin-based peptides were tested at […] concentrations (0.1, 1, 6.25, 12.5, 25, 50 and 100 µM) after 2 and 24 h. At the end of incubation, 100 μL of an MTT solution (5 mg/mL) was added in each well and incubated for 3 h at 37 °C. The supernatant was discarded and 100 μL of DMSO 100% (Sigma Aldrich) was added (to dissolve the formazan salts) for 10 min with vigorous agitation at room temperature. Cytotoxicity was evaluated by spectrophotometric reading at 540 nm. The viability of Vero cells in each well was presented as a percentage of control cells. All experiments were performed in triplicate, and the means standard deviations are reported. Nonlinear regression analysis was performed using GraphPad Prism software (GraphPad Software, San Diego, CA, USA) to determine the CC50.

[9] = tested on: HCoV-229E; settings: 2 h
[10] = tested on: HCoV-OC43; settings: 2 h
[11] = tested on: HPIV-3; settings: 2 h
[12] = tested on: HSV-1; parameters: method as in PMID 29483113; settings: preincubation of HSV-1 purified virions with 20 µg/mL; cited from earlier work
[13] = tested on: Vero cells; test: MTT cytotoxicity assay on Vero cells; format: cell-based; settings: 2 h of treatment, concentration above 50 μM

Molecule | IC50 [1] | IC90 [1] | %Helix in DPC ([2]; Table 2) | CC50 [3] | IC50 [6] | IC90 [6] | cytotoxicity on PBMCs [8] | IC50 [9] | IC90 [9] | other results
CC[C@H](C)[C@H](NC(=O)[C@H](CCCNC(=N)N)NC(=O)CNC(=O)[C@@H](CC(C)C)NC(=O)[C@H](Cc1ccccc1)NC(=O)[C@H](CCCCN)NC(=O)[C@H](CO)NC(=O)[C@H](Cc1ccccc1)NC(=O)[C@H](Cc1c[nH]c2ccccc12)NC(=O)[C@@H]1CCCN1C(=O)[C@@H](NC(=O)[C@@H](N)Cc1ccccc1)C(C)C)C(=O)N[C@@H](CC(C)C)C(N)=O [TL1, H-Phe-Val-Pro-Trp-Phe-Ser-Lys-Phe-DLeu-Gly-Arg-Ile-Leu-NH2] (H-FVPWFSKF[dL]GRIL-NH2) | > 50 µM | > 50 µM | 42% | 42.2 µM | 6.74 µM | 12.5 µM | minor damage | 7.66 µM | 30.1 µM | reduction of infectivity, MeV ([1]; cell pretreatment assay, peptide 25 μM): over 40%; effect on MeV in the virus pretreatment assay ([1]; virus pretreatment assay): not affected; %Helix in DPC ([2]; Table 1): 42%; infectivity of poliovirus Sb-1 in the presence of peptide [4]: not altered; infectivity of CV-B3 in the presence of peptide [5]: not altered; hemolytic activity [7]: practically devoid of hemolytic activity
CCCC[C@H](NC(=O)[C@@H](CC(C)C)NC(=O)[C@H](Cc1ccccc1)NC(=O)[C@H](CCCCN)NC(=O)[C@H](CO)NC(=O)[C@H](Cc1ccccc1)NC(=O)[C@H](Cc1c[nH]c2ccccc12)NC(=O)[C@@H]1CCCN1C(=O)[C@@H](NC(=O)[C@@H](N)Cc1ccccc1)C(C)C)C(=O)N[C@@H](CCCNC(=N)N)C(=O)N[C@H](C(=O)N[C@@H](CC(C)C)C(N)=O)[C@@H](C)CC [TL6, H-Phe-Val-Pro-Trp-Phe-Ser-Lys-Phe-DLeu-Nle-Arg-Ile-Leu-NH2] (H-FVPWFSKF[dL][Nle]RIL-NH2) | 34.6 µM | > 50 µM | 51% | 64.5 µM | 2.66 µM | 9.34 µM | minor damage | 2.08 µM | 13.1 µM | IC50 [10]: 0.97 µM; IC90 [10]: 10 µM; IC50 [11]: 32.4 µM; IC90 [11]: > 50 µM
CCCC[C@H](NC(=O)[C@@H](CC(C)C)NC(=O)[C@H](Cc1ccccc1)NC(=O)[C@H](CCCCN)NC(=O)[C@H](CO)NC(=O)[C@H](Cc1ccccc1)NC(=O)[C@H](Cc1c[nH]c2ccccc12)NC(=O)[C@@H]1CCCN1C(=O)[C@@H](NC(=O)[C@H](Cc1ccccc1)NC(=O)[C@@H](N)CSCC(=O)NCCOCCOCCOCCOCCC(=O)O[C@H]1CC[C@@]2(C)C(=CC[C@H]3[C@@H]4CC[C@H]([C@H](C)CCCC(C)C)[C@@]4(C)CC[C@@H]32)C1)C(C)C)C(=O)N[C@@H](CCCNC(=N)N)C(=O)N[C@H](C(=O)N[C@@H](CC(C)C)C(N)=O)[C@@H](C)CC [TL6.3, H-[Cholesterol-PEG4]-Cys-Phe-Val-Pro-Trp-Phe-Ser-Lys-Phe-DLeu-Nle-Arg-Ile-Leu-NH2] (H-C(X1)FVPWFSKF[dL][Nle]RIL-NH2; N-terminus assumed) | 22.3 µM | 31.1 µM |  | > 100 µM | 2.55 µM | 5.89 µM | minor damage |  |  | 
temporin B [TB] |  |  |  |  |  |  |  |  |  | reduction of virus titers [12]: 5 log
CCCC[C@H](NC(=O)[C@@H](CC(C)C)NC(=O)[C@H](Cc1ccccc1)NC(=O)[C@H](CCCCN)NC(=O)[C@H](CO)NC(=O)[C@H](Cc1ccccc1)NC(=O)[C@H](Cc1c[nH]c2ccccc12)NC(=O)[C@@H]1CCCN1C(=O)[C@@H](NC(=O)[C@@H](N)Cc1ccccc1)C(C)C)C(=O)N[C@@H](CCCNC(=N)N)C(=O)N[C@H](C(=O)N[C@@H](CC(C)C)C(=O)NCC(=O)NCC(=O)N[C@@H](CSCC(=O)NCCOCCOCCOCCOCCC(=O)O[C@H]1CC[C@@]2(C)C(=CC[C@H]3[C@@H]4CC[C@H]([C@H](C)CCCC(C)C)[C@@]4(C)CC[C@@H]32)C1)C(N)=O)[C@@H](C)CC [TL6.2, H-Phe-Val-Pro-Trp-Phe-Ser-Lys-Phe-DLeu-Nle-Arg-Ile-Leu-Gly-Gly-Cys-[PEG4-Cholesterol]-NH2] (H-FVPWFSKF[dL][Nle]RILGGC(X1)-NH2) | 40.9 µM | > 50 µM |  | > 100 µM | 21.1 µM | 49.9 µM |  |  |  | toxicity [13]: about 40%
CCCCCCCCCCC(=O)N[C@@H](Cc1ccccc1)C(=O)N[C@H](C(=O)N1CCC[C@H]1C(=O)N[C@@H](Cc1c[nH]c2ccccc12)C(=O)N[C@@H](Cc1ccccc1)C(=O)N[C@@H](CO)C(=O)N[C@@H](CCCCN)C(=O)N[C@@H](Cc1ccccc1)C(=O)N[C@H](CC(C)C)C(=O)N[C@@H](CCCC)C(=O)N[C@@H](CCCNC(=N)N)C(=O)N[C@H](C(=O)N[C@@H](CC(C)C)C(N)=O)[C@@H](C)CC)C(C)C [TL6.5, H-Undecanoic acid-Phe-Val-Pro-Trp-Phe-Ser-Lys-Phe-DLeu-Nle-Arg-Ile-Leu-NH2] (Undecanoyl-FVPWFSKF[dL][Nle]RIL-NH2) | 10 µM | 29.2 µM |  | > 100 µM | < 0.1 µM | < 0.1 µM | minor damage |  |  | 
CC[C@H](C)[C@H](NC(=O)[C@H](CCCNC(=N)N)NC(=O)[C@H]1C[C@H](O)CN1C(=O)[C@@H](CC(C)C)NC(=O)[C@H](Cc1ccccc1)NC(=O)[C@H](CCCCN)NC(=O)[C@H](CO)NC(=O)[C@H](Cc1ccccc1)NC(=O)[C@H](Cc1c[nH]c2ccccc12)NC(=O)[C@@H]1CCCN1C(=O)[C@@H](NC(=O)[C@@H](N)Cc1ccccc1)C(C)C)C(=O)N[C@@H](CC(C)C)C(N)=O [TL5, H-Phe-Val-Pro-Trp-Phe-Ser-Lys-Phe-DLeu-DHyp-Arg-Ile-Leu-NH2] (H-FVPWFSKF[dL][dHyp]RIL-NH2) | > 50 µM | > 50 µM | 9% | > 100 µM | > 50 µM | > 50 µM |  | > 50 µM | > 50 µM | IC50 [10]: > 50 µM; IC90 [10]: > 50 µM; IC50 [11]: > 50 µM; IC90 [11]: > 50 µM
H-FVQWFSKFLGRIL-NH2 [TL, H-Phe-Val-Gln-Trp-Phe-Ser-Lys-Phe-Leu-Gly-Arg-Ile-Leu-NH2, reference compound] |  |  |  | 19.6 µM |  |  | minor damage |  |  | hemolytic activity [7]: practically devoid of hemolytic activity; concentration showing residual hemolytic activity ([7]; red blood cells): ≥ 50 µM
